Measurements reported in ChEMBL document CHEMBL3797071, “Repurposing strategies for tropical disease drug discovery” (Bioorg Med Chem Lett, 2016).

What was measured:
Trypanosoma brucei = assay: Antiparasitic activity against Trypanosoma brucei […]; type: functional, organism-based
[1] = Inhibition of Trypanosoma brucei LeuRS assessed as formation of stable tRNA(Leu)-compound adduct in editing site of enzyme
L929 = assay: Cytotoxicity against mouse L929 cells; type: cell-based
Leishmania chagasi [2] = assay: Antiparasitic activity against amastigote stage of Leishmania chagasi MHOM/BR/1972/LD infected in golden hamster assessed as reduction in parasite load at 20 mg/kg, ip administered for 15 days measured after 4 weeks by limiting dillution method; type: functional; design: scale not given: the % may be the effect or the level left
Leishmania chagasi [3] = assay: Antiparasitic activity against amastigote stage of Leishmania chagasi MHOM/BR/1972/LD infected in golden hamster assessed as golden hamster survival rate at 20 mg/kg, ip after 18 weeks by limiting dillution method; type: functional
Leishmania braziliensis = assay: Antiparasitic activity against promastigote stage of Leishmania braziliensis MHOM/BR/2001/BA788 infected in BALB/c mouse assessed as reduction in parasite load at 20 mg/kg, ip administered for 15 days measured after 6 weeks by limiting dillution method; type: functional; design: scale not given: the % may be the effect or the level left
Brugia pahangi [4] = assay: Antifilarial activity against Brugia pahangi infected in gerbils assessed as reduction in worm burden at 5 mg/kg, sid in weekends for 28 days; type: functional, organism-based; design: scale not given: the % may be the effect or the level left
[5] = Selectivity ratio of IC50 for Onchocerca ochengi to IC50 for microfilariae of Loa loa; type: functional
Brugia pahangi [6] = assay: Antifilarial activity against Brugia pahangi infected in gerbils assessed as reduction in worm burden at 5 mg/kg, bid in weekdays for 28 days; type: functional, organism-based; design: scale not given: the % may be the effect or the level left

Molecule | EC50 (Trypanosoma brucei) [µM] | IC50 [1] [µM] | EC50 (L929) [µM] | other results
CCOC(=O)COc1ccc2c(c1)B(O)OC2 | 0.72 | 3.5 | > 40 | –
CC(=O)C(C)(C)Oc1ccc2c(c1)B(O)OC2 | 0.37 | 5 | > 40 | –
CC/C(=C(\c1ccccc1)c1ccc(OCCN(C)C)cc1)c1ccccc1 [TAMOXIFEN] | – | – | – | Activity (Leishmania chagasi [2]): 95%; Activity (Leishmania chagasi [3]): 100%; Activity (Leishmania braziliensis): 95%
OB1OCc2cc(F)ccc21 [TAVABOROLE] | – | 22.1 | – | –
AURANOFIN | – | – | – | Activity (Brugia pahangi [4]): 91%; Ratio IC50 [5]: 43; Activity (Brugia pahangi [6]): 58%
